Laboratory results reported in ChEMBL document CHEMBL1201862, “PubChem BioAssay data set” (2004).
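Protocol summary: plate cells (96-well), add compound at 5 concentrations, incubate 48 h, interpolate endpoints linearly. GI50 marks 50% less growth.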 Activity calls are given as the source filed them. Cut-off read from the data, not from the text of the source: active = GI50 up to about 1.1 µM and inactive = higher.

Key:
Assay in all cases: NCI-60 cell line screen, 48 h
[1] = test system: SNB-19
[2] = test system: Hs-578T
[3] = test system: SF-295
[4] = test system: TK-10
[5] = test system: SNB-75
[6] = test system: UACC-257
[7] = test system: KM12
[8] = test system: HCC 2998
[9] = test system: MCF7
[10] = test system: Malme-3M
[11] = test system: NCI-H226
[12] = test system: LOX IMVI
[13] = test system: SK-MEL-2
[14] = test system: MDA-MB-231
[15] = test system: RXF 393
[16] = test system: UO-31
[17] = test system: HCT-15
[18] = test system: HT-29
[19] = test system: OVCAR-5
[20] = test system: RPMI-8226

Row | Structure (SMILES) | GI50 [1] | GI50 [2] | GI50 [3] | GI50 [4] | GI50 [5] | GI50 [6] | GI50 [7] | GI50 [8] | GI50 [9] | GI50 [10] | GI50 [11] | GI50 [12] | GI50 [13] | GI50 [14] | GI50 [15] | GI50 [16] | GI50 [17] [µM] | GI50 [18] | GI50 [19] | GI50 [20]
1 | O=c1c(S(=O)(=O)Oc2ccccc2)coc2cc(F)ccc12 | > 100 µM (inactive) | 26.2 µM (inactive) | 30.3 µM (inactive) | > 100 µM (inactive) | 30.9 µM (inactive) | > 100 µM (inactive) | > 100 µM (inactive) | > 100 µM (inactive) | 74.8 µM (inactive) | > 100 µM (inactive) | 17.4 µM (inactive) | > 100 µM (inactive) | 46.8 µM (inactive) | > 100 µM (inactive) | 36.1 µM (inactive) | 46.8 µM (inactive) | > 100 | > 100 µM (inactive) | > 100 µM (inactive) | 
2 | COc1ccc2c(c1)/C(=C\c1c(C)nc3sc(C)cn13)C(=O)N2 | 3.33 µM (inactive) | 1.22 µM (inactive) | 0.309 µM (active) | 3.18 µM (inactive) |  | 1.41 µM (inactive) | 0.327 µM (active) | 0.337 µM (active) | 0.332 µM (active) | 0.172 µM (active) | 0.841 µM (active) | 1.87 µM (inactive) | 0.263 µM (active) | 0.855 µM (active) | 1.64 µM (inactive) | 3.92 µM (inactive) | 0.49 | 0.363 µM (active) | 3.24 µM (inactive) | 0.581 µM (active)
3 | CN1CCN(C(=S)N(C)C(=O)c2ccco2)CC1 | > 100 µM (inactive) | > 100 µM (inactive) | > 100 µM (inactive) | > 100 µM (inactive) |  | > 100 µM (inactive) | > 100 µM (inactive) | > 100 µM (inactive) | > 100 µM (inactive) | > 100 µM (inactive) | > 100 µM (inactive) | > 100 µM (inactive) | > 100 µM (inactive) | > 100 µM (inactive) | > 100 µM (inactive) | > 100 µM (inactive) | > 100 | > 100 µM (inactive) | > 100 µM (inactive) | > 100 µM (inactive)
4 | CCOC(=O)c1c(SC(=O)C(C)(C)Oc2ccc(Cl)cc2)n(-c2ccccc2)c(=S)n(-c2ccccc2)c1=O | 31.6 µM (inactive) | 26.9 µM (inactive) | 59.2 µM (inactive) | 89.5 µM (inactive) | 51.4 µM (inactive) | > 100 µM (inactive) | 24.8 µM (inactive) | > 100 µM (inactive) | 21.5 µM (inactive) | 23 µM (inactive) | 40 µM (inactive) | 31.8 µM (inactive) |  | 26.6 µM (inactive) | 25.1 µM (inactive) |  | 60.4 | 27.4 µM (inactive) | 67 µM (inactive) | 
5 | CCCCOc1ccc(S(=O)(=O)N/C(=N\O)Nc2ccc(Cl)cc2)cc1 | 15.2 µM (inactive) | 23.2 µM (inactive) | 16.9 µM (inactive) | 15 µM (inactive) |  | 15.5 µM (inactive) | 16.6 µM (inactive) | 14.3 µM (inactive) | 13.3 µM (inactive) | 17.7 µM (inactive) | 24 µM (inactive) | 16 µM (inactive) | 16.3 µM (inactive) | 16.4 µM (inactive) | 15.2 µM (inactive) | 12.2 µM (inactive) | 14.6 | 17.2 µM (inactive) | 18.6 µM (inactive) | 21.1 µM (inactive)
6 | COc1ccc2oc(OC)c(CC=C(C)C)c(=O)c2c1C | > 100 µM (inactive) | > 100 µM (inactive) | > 100 µM (inactive) | > 100 µM (inactive) | > 100 µM (inactive) | > 100 µM (inactive) | > 100 µM (inactive) | > 100 µM (inactive) | > 100 µM (inactive) | > 100 µM (inactive) | > 100 µM (inactive) | > 100 µM (inactive) | > 100 µM (inactive) | > 100 µM (inactive) |  | > 100 µM (inactive) | > 100 | > 100 µM (inactive) | > 100 µM (inactive) | > 100 µM (inactive)
7 | C/C=C1/CN2CCC34c5ccccc5N(C)C23C2CC1C4(C(=O)OC)C(O)O2 (configuration not stated) | > 100 µM (inactive) | > 100 µM (inactive) | > 100 µM (inactive) | > 100 µM (inactive) | > 100 µM (inactive) | > 100 µM (inactive) | > 100 µM (inactive) | > 100 µM (inactive) | > 100 µM (inactive) |  | > 100 µM (inactive) | > 100 µM (inactive) | > 100 µM (inactive) | > 100 µM (inactive) |  | > 100 µM (inactive) | > 100 | > 100 µM (inactive) | > 100 µM (inactive) | > 100 µM (inactive)
8 | Cc1cccc(C)c1Nc1nc(C)c(C(=O)CC(=O)C(=O)Nc2c(C(C)C)cccc2C(C)C)s1 | > 100 µM (inactive) | > 100 µM (inactive) | 58.5 µM (inactive) | > 100 µM (inactive) |  | > 100 µM (inactive) | > 100 µM (inactive) | > 100 µM (inactive) | > 100 µM (inactive) |  | > 100 µM (inactive) | > 100 µM (inactive) | > 100 µM (inactive) | > 100 µM (inactive) | 43.8 µM (inactive) | 39.4 µM (inactive) | > 100 | > 100 µM (inactive) | > 100 µM (inactive) | 56.8 µM (inactive)
9 | CCOC(=O)c1nc2ccc(C(F)(F)F)cc2[nH]c1=O | > 100 µM (inactive) | 82 µM (inactive) | > 100 µM (inactive) | > 100 µM (inactive) |  | > 100 µM (inactive) | > 100 µM (inactive) | > 100 µM (inactive) | > 100 µM (inactive) |  | > 100 µM (inactive) | > 100 µM (inactive) | > 100 µM (inactive) | > 100 µM (inactive) | > 100 µM (inactive) | > 100 µM (inactive) | > 100 | > 100 µM (inactive) | > 100 µM (inactive) | > 100 µM (inactive)
10 | CC(=O)Oc1ccc2cc(-c3ccccc3OC(C)=O)c(=O)oc2c1 | 46.9 µM (inactive) | 56.5 µM (inactive) | 50.4 µM (inactive) |  | 11.7 µM (inactive) | > 100 µM (inactive) | 33.5 µM (inactive) | 48.1 µM (inactive) | 89.3 µM (inactive) | 34.3 µM (inactive) | 27.7 µM (inactive) | 64.9 µM (inactive) | 53.7 µM (inactive) | 82.8 µM (inactive) |  | 4.97 µM (inactive) | 33.7 | > 100 µM (inactive) | 69 µM (inactive) | 28.8 µM (inactive)
11 | O=C(O)C1CCCCC1c1c2ccc(=O)c(O)c-2oc2c(O)c(O)ccc12 (configuration not stated) | 29.4 µM (inactive) | 4.44 µM (inactive) | 23.7 µM (inactive) | > 100 µM (inactive) | 28.3 µM (inactive) | > 100 µM (inactive) | 35.2 µM (inactive) |  | 14.2 µM (inactive) | 95.7 µM (inactive) | 12.1 µM (inactive) | 13.8 µM (inactive) | > 100 µM (inactive) | 18.6 µM (inactive) | 69.7 µM (inactive) | 44.4 µM (inactive) |  | 74.5 µM (inactive) | > 100 µM (inactive) | 29.9 µM (inactive)
12 | c1ccc2c(c1)Nc1cccc3c1c-2nc1cc2ccccc2cc13 | 1.75 µM (inactive) | 2.24 µM (inactive) | 1.6 µM (inactive) | 1.87 µM (inactive) | 1.41 µM (inactive) | 1.58 µM (inactive) | 1.62 µM (inactive) | 1.72 µM (inactive) | 1.56 µM (inactive) | 1.69 µM (inactive) | 1.85 µM (inactive) | 1.55 µM (inactive) | 1.48 µM (inactive) | 1.1 µM (active) | 1.57 µM (inactive) | 1.63 µM (inactive) |  | 1.72 µM (inactive) | 1.82 µM (inactive) | 
13 | CN(C)CCn1c(=O)c2ccc(NCCN3CCNCC3)c3c(=O)c4ccccc4n(c1=O)c23 | 2.94 µM (inactive) | 3.04 µM (inactive) | 1.02 µM (active) | 4.86 µM (inactive) | 2.13 µM (inactive) | 4.07 µM (inactive) | 1.63 µM (inactive) | 1.97 µM (inactive) | 0.743 µM (active) | 4.12 µM (inactive) | 2.38 µM (inactive) | 1.69 µM (inactive) | 2.56 µM (inactive) | 2.56 µM (inactive) |  | 4.94 µM (inactive) | 1.53 | 0.82 µM (active) | 8.47 µM (inactive) | 0.251 µM (active)
14 | COc1cc(OC)c(OC)cc1/C=C/c1ccc2ccccc2n1 |  | 3.44 µM (inactive) | 9.71 µM (inactive) | > 10 µM (inactive) | 9.71 µM (inactive) | > 10 µM (inactive) | 7.85 µM (inactive) | > 10 µM (inactive) | 9.57 µM (inactive) | > 10 µM (inactive) |  | > 10 µM (inactive) |  | > 10 µM (inactive) |  |  | 7.62 | 4.35 µM (inactive) | > 10 µM (inactive) | 3.66 µM (inactive)
15 | CCNCCNc1c2ccccc2nc2ccccc12 | 1.01 µM (active) | 1.98 µM (inactive) | 1.21 µM (inactive) | 2.91 µM (inactive) | 1.53 µM (inactive) | 1.66 µM (inactive) | 1.58 µM (inactive) | 0.127 µM (active) | 0.565 µM (active) | 1.7 µM (inactive) |  | 0.743 µM (active) | 1.51 µM (inactive) | 1.24 µM (inactive) | 1.23 µM (inactive) | 1.49 µM (inactive) | 1.48 | 0.427 µM (active) | 1.13 µM (inactive) | 
